Patent publication US8772504B2, “Substituted benzoxazole, benzimidazole, oxazolopyridine and imidazopyridine derivatives as gamma secretase modulators” (Janssen Pharmaceuticals, Inc., priority 2009, dated 2014)
pIC50: −log10 of the molar value.

Legend:
Aβ42 [1] = test: Screening for γ-secretase-modulating activity, Method 1: Aβ42 sandwich ELISA on SKNBE2 cell media; format: cell-based; conditions: SKNBE2 cells carrying APP 695 wild type
In short: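 SKNBE2 cells expressing wild-type APP695 were treated with compound for 18 h in Ultraculture/1% glutamine. Secreted Aβ42 was quantified by sandwich ELISA (C-terminal capture, biotinylated 3D6, TMB, 450 nm), with WST-1 used as a toxicity check. IC50 was derived from 4-parameter fits of % inhibition or % of untreated control.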

Aβ42 [2] = test: In vivo efficacy Method 1: brain soluble Aβ42 by ELISA; design: species or system mouse; conditions: Table 4a, single oral dose, overnight fasted animals, sacrificed after 4 h, soluble fraction of brain homogenates
Excerpt: (§1) To determine whether acute administration of an Aβ42 lowering agent would reduce Aβ42 levels in vivo, non-transgenic rodents, e.g. mice or rats were used. Alternatively, two to three month old Tg2576 mice expressing APP695 containing the “Swedish” variant can be used or a transgenic mouse model developed by Dr. Fred Van Leuven (K.U. Leuven, Belgium) and co-workers, with neuron-specific expression of a clinical mutant of the human amyloid precursor protein [V717I] […] Young transgenic mice have high levels of Aβ in the brain but no detectable Aβ deposition. At approximately 6-8 months of age, the transgenic mice start to display spontaneous, progressive accumulation of β-amyloid (Aβ) in the brain, eventually resulting in amyloid plaques within the subiculum, hippocampus and cortex. Animals treated with the Aβ42 lowering agent were examined and compared to those untreated or treated with vehicle and brain levels of soluble Aβ42 and total Aβ would be quantitated by standard techniques, for example, using ELISA.
(§2) A typical protocol for measuring Aβ42 lowering in vivo is shown but it is only one of many variations that could be used to optimize the levels of detectable Aβ. For example, Aβ42 lowering compounds were formulated in 20% of Captisol® (a sulfobutyl ether of β-cyclodextrin) in water or 20% hydroxypropyl β cyclodextrin. The Aβ42 lowering agents were administered as a single oral dose or by any acceptable route of administration to overnight fasted animals. After 4 h, the animals were sacrificed and Aβ42 levels were analysed.
(§3) Blood was collected by decapitation and exsanguinations in EDTA-treated collection tubes. Blood was centrifuged at 1900 g for 10 minutes (min) at 4° C. and the plasma recovered and flash frozen for later analysis. The brain was removed from the cranium and hindbrain. The cerebellum was removed and the left and right hemisphere were separated. The left hemisphere was stored at −18° C. for quantitative analysis of test compound levels. The right hemisphere was rinsed with phosphate-buffered saline (PBS) buffer and immediately frozen on dry ice and stored at −80° C. until homogenization for biochemical assays.
(§4) All samples were sonicated for 30 seconds on ice at 20% power output (pulse mode). Homogenates were centrifuged at 221.300×g for 50 min. The resulting high speed supernatants were then transferred to fresh tubes and were optionally further purified before the next step. A portion of the supernatant was neutralized with 10% 0.5 M Tris-HCl and this was used to quantify Aβtotal.
(§5) The obtained supernatants were purified with Water Oasis HLB reverse phase columns (Waters Corp., Milford, Mass.) to remove non-specific immunoreactive material from the brain lysates prior subsequent Aβ detection. Using a vacuum manifold, all solutions were passed through the columns at a rate of approximately 1 ml per min, so the vacuum pressure was adjusted accordingly throughout the procedure. Columns were preconditioned with 1 ml of 100% MeOH, before equilibration with 1 ml of H2O, Non-neutralized brain lysates were loaded onto the columns. The loaded samples were then washed twice with the first wash performed with 1 ml of 5% MeOH, and the second wash with 1 ml of 30% MeOH. Finally, the Aβ was eluted from the columns and into 100×30 mm glass tubes, with a solution of 90% MeOH with 2% NH4OH. The eluate was then transferred into 1.5 ml tubes and concentrated in a speed-vac concentrator on high heat for about 1.5-2 h at 70° C. The concentrated Aβ was then resuspended in UltraCULTURE General Purpose Serum-Free Medium (Cambrex Corp., Walkersville, Md.) plus Protease Inhibitors added.
To quantify the amount of Aβ42 in the soluble fraction of the brain homogenates, commercially available Enzyme-Linked-Immunosorbent-Assay (ELISA) kits were used (e.g. Innotest® β-Amyloid(1-42), Innogenetics N.V., Ghent, Belgium). The Aβ42 ELISA was performed using the plate provided with the kit only.

Aβtotal [3] = test: In vivo efficacy Method 1: brain soluble Aβtotal by ELISA; design: species or system mouse; conditions: Table 4a, single oral dose, overnight fasted animals, sacrificed after 4 h, soluble fraction of brain homogenates
Excerpt: as §1, §2, §3, §4
as §5, with “added. […]” for “added.”

Aβtotal [4] = test: Screening for γ-secretase-modulating activity, Method 1: Aβtotal sandwich ELISA on SKNBE2 cell media; format: cell-based; conditions: SKNBE2 cells carrying APP 695 wild type
In short: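 SKNBE2 cells expressing wild-type APP 695 were treated with compound for 18 hours. Aβtotal in the medium was measured by sandwich ELISA (6E10 capture, biotinylated 4G8 detection, fluorogenic peroxidase read-out). IC50 came from a 4-parameter fit of % inhibition with top/bottom fixed at 100/0 and Hill slope 1, or as averaged IC50 from % of untreated control.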

Aβ42 [5] = test: Screening for γ-secretase-modulating activity, Method 2: Aβ42 Alphalisa on SKNBE2 cell supernatant; format: cell-based; conditions: Method 2, Table 3c, SKNBE2 cells carrying APP 695 wild type, overnight incubation
In short: (§6)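 SKNBE2 cells expressing wild-type APP695, plated at 10^4 cells/well with compound at several concentrations and incubated overnight at 37° C. Aβ42 (C-terminal capture, N-terminal biotinylated detection) and Aβtotal (N-terminal/4G8 pair) measured in supernatant by AlphaLISA. IC50 from 4-parameter fit of percent of compound-free control.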

Aβtotal [6] = test: Screening for γ-secretase-modulating activity, Method 2: Aβtotal Alphalisa on SKNBE2 cell supernatant; format: cell-based; conditions: Method 2, Table 3c, SKNBE2 cells carrying APP 695 wild type, overnight incubation
In short: as §6

[7] = Homo sapiens, Table 3a, 18 hours, XLfit, top/bottom fixed to 100 and 0, hill slope 1
[8] = Homo sapiens, Table 3b, non-linear regression of % of control, averaged IC50 values
[9] = Table 3a, 18 hours, XLfit, top/bottom fixed to 100 and 0, hill slope 1
[10] = Table 3b, non-linear regression of % of control, averaged IC50 values

Row | Structure (SMILES) | pIC50 (Aβ42 [1]; [7]) | pIC50 (Aβ42 [1]; [8]) | Aβ42 (% Ctrl) _Mean (Aβ42 [2]) [% Ctrl] | Aβtotal (% Ctrl) _Mean (Aβtotal [3]) [% Ctrl] | pIC50 (Aβtotal [4]; [7]) | pIC50 (Aβtotal [4]; [8]) | pIC50 (Aβ42 [1]; [9]) | pIC50 (Aβ42 [1]; [10]) | pIC50 (Aβtotal [4]; [9]) | pIC50 (Aβtotal [4]; [10]) | pIC50 (Aβ42 [5]) | pIC50 (Aβtotal [6]) | pIC50 (Aβ42 [5]; Homo sapiens) | pIC50 (Aβtotal [6]; Homo sapiens)
1 | COc1cc(Nc2cccc3c2nc(-c2ccc(F)cc2F)n3C)ccc1-n1cnc(C)c1 [Compound 3] | 7.89 | 7.89 | 46 | 87 | < 6.00 | < 5.52 | – | – | – | – | – | – | – | –
2 | Cc1cn(-c2ccc(Nc3cccc4c3nc(-c3ccc(F)cc3)n4C)nc2)cn1 [Compound 5] | 7.51 | 7.52 | 62 | 94 | < 5.52 | < 5.52 | – | – | – | – | – | – | – | –
3 | Cc1cn(-c2ccc(Nc3cccc4c3nc(-c3ccc(F)cc3)n4C)cc2)cn1 [Compound 7] | 7.66 | 7.64 | 58 | 89 | < 6.00 | < 5.52 | – | – | – | – | – | – | – | –
4 | COc1cc(Nc2cccc3oc(CC(C)C)nc23)ccc1-n1cnc(C)c1 [Compound 18] | 7.00 | 6.99 | 81 | 95 | < 5.30 | < 5.00 | – | – | – | – | – | – | – | –
5 | COc1cc(Nc2cccc3c2nc(C2CCCCC2)n3C)ccc1-n1cnc(C)c1 [Compound 38] | – | – | 72 | 101 | – | – | 6.98 | 6.90 | < 5.52 | < 5.52 | – | – | – | –
6 | COc1cc(Nc2cccc3c2nc(N2CC(C)OC(C)C2)n3C)ccc1-n1cnc(C)c1 (stereo not shown) [Compound 44] | – | – | 91 | 101 | – | – | 6.87 | 6.87 | < 5.30 | < 5.30 | – | – | – | –
7 | COc1cc(Nc2cccc3[nH]c(-c4ccccc4C)nc23)ccc1-n1cnc(C)c1 [Compound 45] | 7.82 | 7.89 | 93 | 94 | < 6.00 | < 5.52 | – | – | – | – | – | – | – | –
8 | CCOc1cc(C)c(-c2nc3c(Nc4ccc(-n5cnc(C)n5)c(OC)c4)cccc3o2)cc1C(C)C [Compound 59] | – | – | – | – | – | – | 5.14 | 5.11 | 4.58 | < 4.52 | < 5.52 | < 5.52 | – | –
9 | COc1cc(Nc2cccc3c2nc(-c2ccccc2F)n3C)ccc1-n1cnc(C)c1 [Compound 66] | – | – | – | – | – | – | 7.57 | 7.62 | < 5.52 | < 5.52 | 7.68 | < 5.00 | – | –
10 | Cc1cn(-c2ccc(Nc3cccc4c3nc(-c3ccc(F)cc3)n4C)cn2)cn1 [Compound 68] | – | – | – | – | – | – | 7.57 | 7.59 | < 6.00 | < 6.00 | 7.46 | < 5.00 | – | –
11 | COc1cc(Nc2cccc3c2nc(-c2ccc(F)cc2)n3C(C)(C)C)ccc1-n1cnc(C)n1 [Compound 78] | – | – | – | – | – | – | > 6.96 | > 6.96 | < 5.52 | < 5.52 | 7.00 | < 5.00 | – | –
12 | COc1cc(Nc2cccc3oc(-c4cccnc4)nc23)ccc1-n1cnc(C)c1 [Compound 86] | – | – | – | – | – | – | < 5.52 | < 5.52 | < 5.52 | < 5.52 | < 5.00 | < 5.00 | – | –
13 | Cc1ncn(-c2ccc(Nc3cccc4oc(CC(C)C)nc34)nc2)n1 [Compound 87] | – | – | – | – | – | – | < 5.52 | < 5.52 | < 5.52 | – | < 5.00 | < 5.00 | – | –
14 | Cc1ncn(-c2ccc(Nc3cccc4c3nc(-c3ccc(F)cc3)n4C(C)C)nc2)n1 [Compound 89] | – | – | – | – | – | – | 6.49 | 6.49 | < 5.52 | < 5.52 | 6.24 | < 5.00 | – | –
15 | Cc1ncn(-c2c(F)cc(Nc3cccc4c3nc(-c3ccc(F)cc3)n4C)cc2F)n1 [Compound 102] | – | – | – | – | – | – | 6.08 | 6.06 | < 5.52 | < 5.52 | 5.89 | 5.09 | – | –
16 | COc1cc(Nc2cccc3c2nc(-c2ccc(C(F)(F)F)nc2)n3C(C)C)ccc1-n1cnc(C)c1 [Compound 117] | – | – | – | – | – | – | – | 7.48 | – | < 5.52 | 7.55 | < 5.00 | – | –
17 | COc1cc(Nc2cccc3c2nc(-c2ccc(Cl)s2)n3C(C)C)ccc1-n1cnc(C)n1 [Compound 121] | – | – | – | – | – | – | – | 7.70 | – | < 5.52 | 7.47 | < 5.00 | – | –
18 | Cc1cn(-c2ccc(Nc3nccc4c3nc(-c3ccc(F)cc3)n4C)cc2F)cn1 [Compound 137] | – | – | – | – | – | – | – | 7.30 | – | < 5.52 | 7.68 | < 5.00 | – | –
19 | COc1nc(Nc2nc(C)cc3c2nc(-c2ccccc2Cl)n3C)ccc1-n1cnc(C)c1 [Compound 149] | – | – | – | – | – | – | – | 6.50 | – | < 5.00 | 6.71 | 5.01 | – | –
20 | COc1nc(Nc2nc(C)cc3c2nc(-c2ccc(F)cc2)n3C)ccc1-n1cnc(C)c1 [Compound 150] | – | – | – | – | – | – | – | 6.36 | – | 5.16 | 6.84 | 5.31 | – | –
21 | COc1nc(Nc2cc(F)cc3c2nc(-c2ccccc2Cl)n3C)ccc1-n1cnc(C)c1 [Compound 151] | – | – | – | – | – | – | – | 8.30 | – | < 5.52 | 7.96 | 5.31 | – | –
22 | COc1cccc(-c2nc3c(Nc4ccc(-n5cnc(C)n5)c(OC)c4)nc(C)cc3n2C)c1 [Compound 163] | – | – | – | – | – | – | – | 7.32 | – | < 5.52 | 7.54 | 5.37 | – | –
23 | COCCCc1cc(Nc2ccc(-n3cnc(C)n3)c(OC)c2)c2nc(-c3ccc(F)cc3)n(C)c2n1 [Compound 208] | – | 7.46 | – | – | – | < 5.52 | – | – | – | – | – | – | 7.04 | < 5.00
